Assay type in all cases: in vivo, C57BL/6 mice
For assay [1], the system named is experimental autoimmune encephalomyelitis (EAE) mice. The experiment in a line: EAE model of MS, daily disease score (paralysis), treatment from day 17. How it is done:
(§1) Experimental detail: Female, C57BL/6 mice were immunized subcutaneously (s.c.) in the hind flanks to induce EAE using myelin oligodendrocyte glycoprotein (MOG) peptide 35-55 (50 μg/mouse) in complete Freund's adjuvant containing heat-killed Mycobacterium tuberculosis (500 μg/mouse). In addition, pertussis toxin (200 ng/mouse) was administered intraperitoneally (i.p.) on days 0 and 2. Mice were weighed and scored daily. On day 17 (dotted line), mice were started on daily treatment with vehicle only (Veh; 10% tween and 10% DMSO in saline) or Nalmefene (NaIM) at 0.1, 0.03, or 0.01 mg/kg by i.p. injection. Nalmefene was supplied by University of Kansas, Synthetic Chemical Biology Core Laboratory, 97.6% pure by HPLC). Treatment allocation was blinded. The disease was scored from 0-5 with 0 (normal), 1 (partial tail paralysis), 2 (full tail paralysis), 3 (one hind limb paralysed or severe disability in both hind limbs), 4 (complete paralysis of both hind limbs) and 5 (moribund). This model is a standard disease model for multiple sclerosis and is described in White et al. 2018. Scientific Reports. 8:259 which is incorporated herein by reference in its entirety. Shown are results combined from 2 independent experiments. ****p<0.0001 by one-way ANOVA with Dunnett's multiple comparison test.
Experimental detail: EAE was induced in female C57BL/6 mice as described in Example 1. On day 17, mice were started on daily treatment with vehicle only (Veh) or nalmefene (NaIM) at 0.1 or 0.03 mg/kg by i.p. injection. The area under the curve (AUC) was calculated for each mouse based upon the daily disease score and represents the total disability experienced. Shown are results from 1 representative experiment. *p<0.05 by one-way ANOVA with Dunnett's multiple comparison test.
Experimental detail: EAE was induced in female C57BL/6 mice as described in Example 1. On day 17 (dotted line), mice were started on daily treatment with vehicle only (Veh) or nalmefene (NaIM) at 0.1 or 0.03 mg/kg by i.p. injection. Shown are mice that were not sick at the time of treatment but developed disease later. *p<0.05 by two-way ANOVA with Holm-Sidak's multiple comparison test.

The nature of a further assay: EAE-induced weight loss. To be noted: 0.1 or 0.03 mg/kg i.p. daily from day 17. On the procedure: as §1, with “Shown are results combined from 2 independent experiments. ****p<0.0001 by one-way ANOVA with Dunnett's multiple comparison test.” left out
Experimental detail: EAE was induced in female C57BL/6 mice as described in Example 1. Mice were weighed daily and the % change in body weight calculated. […]

For assay [2], the system named is experimental autoimmune encephalomyelitis (EAE) mice. Kind of assay: EAE model of MS, disease score, treatment from day of disease onset (score >1). On the procedure:
Experimental detail: EAE was induced in female C57BL/6 mice as described in Example 1. On the day of disease onset (score >1, dotted line), mice were started on daily treatment with vehicle only (Veh) or nalmefene (NaIM) at 0.1, 0.03, 0.01, or 0.003 mg/kg by i.p. injection. […]
Experimental detail: EAE was induced in female C57BL/6 mice as described in Example 1. On the day of disease onset (score >1, dotted line), mice were treated with vehicle only (daily), nalmefene (0.01 mg/kg by i.p. injection daily), the KOR antagonist norBNI (10 mg/kg by i.p. injection weekly), both nalmefene and norBNI, or the MOR antagonist BFNA (10 mg/kg by i.p. injection weekly).
Experimental detail: EAE was induced in female C57BL/6 mice as described in Example 1. On the day of disease onset (score >1, dotted line), mice were treated with vehicle only (daily), nalmefene (0.01 mg/kg by i.p. injection daily), the KOR antagonist norBNI (10 mg/kg by i.p. injection weekly), both nalmefene and norBNI, or the MOR antagonist BFNA (10 mg/kg by i.p. injection weekly). The peak disease score during the first EAE episode was recorded, and mice were considered recovered if they received a score <0.5 by day 23 post treatment initiation.
Experimental detail: EAE was induced in female C57BL/6 mice as described in Example 1.

The test system of assay [3] is cuprizone-induced demyelination in mice. Kind of assay: Cuprizone demyelination disease model, TEM of corpus callosum, g-ratio. To be noted: 0.3% cuprizone diet, 0.01 mg/kg i.p. daily from day 28, day 70. How it is done: Experimental details: A demyelinating disease state was induced in female C57BL/6 mice (8-14 weeks old and between 17-23 grams in weight). The mice were fed cuprizone-containing chow (0.3% (w/w) cuprizone) or chow only (normal controls) for 35 days, at which point they were switched back to standard chow. At day 28, mice were started on daily treatment with vehicle only (DMSO: Tween 80: Saline) or nalmefene at 0.01 mg/kg by i.p. injection. On day 70, mice were culled and brain tissue were processed for transmission electron microscopy (TEM). Mice were weighed daily and the % weight change calculated.
Experimental details: A demyelinating disease state was induced in female C57BL/6 mice as described in FIG. 19A. FIGS. 19A-C show representative Transmission Electron Microscopy (TEM) images of the corpus callosum of mice (A) fed normal diet and (B-C) fed 0.3% cuprizone to induce demyelination. Following the time course described in FIG. 19A, cuprizone fed mice were administered (B) vehicle only treatment, and (C) nalmefene (0.01 mg/kg/i.p.) and then sacrificed on experimental day 70. Scale bars represent 2000 nm.
Mice fed a normal diet have a mean g-ratio of 0.78±0.09 in contrast to mice fed 0.3% cuprizone that have a significant increase in g-ratio of 0.84±0.1 corresponding to the decreased myelin thickness (####p<0.0001). […] Data represents measurements of 5 TEM images of the corpus callosum from 2-3 mice per treatment group and g-ratios calculated (a measure of myelin thickness) using Image J software. Analysis was performed by individuals blinded to treatment groups. (n=200-400 axons per treatment group). All data analysed by one-way ANOVA followed by Turkeys multiple comparisons test.

[4] abbreviates: treated prior to disease onset, 0.1 or 0.03 mg/kg i.p. daily from day 17.
The mark [5] stands for this setting: 0.01 mg/kg i.p. daily from disease onset.
Setting [6] is: 0.003-0.1 mg/kg i.p. daily from disease onset.

SMILES strings stand for the structures.

In the case of `C=C1CC[C@@]2(O)[C@H]3Cc4ccc(O)c5c4[C@@]2(CCN3CC2CC2)[C@H]1O5` [nalmefene, (4R,4aS,7aS,12bS)-3-(cyclopropylmethyl)-7-methylidene-2,4,5,6,7a,13-hexahydro-1H-4,12-methanobenzofuro[3,2-e]isoquinoline-4a,9-diol], the “disease score (recovery from paralysis)” value in assay [1] (0.1, 0.03 or 0.01 mg/kg i.p. daily from day 17, 45 days) is on record as “reduction of disease in all nalmefene-treated groups indicates recovery from paralysis”. In addition, the “reduction in disease (total disability, AUC of daily disease score)” value in assay [1] (0.1 and 0.03 mg/kg i.p. daily from day 17, by day 45) came out at 70%. The “total disability (AUC of disease score)” value in assay [1] (0.1 or 0.03 mg/kg i.p. daily from day 17, by day 45) is recorded as “significantly lower total disability”. In addition, in assay [1] (setting [4]), the onset of disease result is “did not alter the onset of disease” and the “recovery from paralysis (disease score)” value is recorded as “rapid recovery from paralysis”. The “% change in body weight” value in “EAE-induced weight loss” is on record as “recover from EAE-induced weight loss”. For the same compound, in assay [2] (setting [5]), the “disease score (recovery from paralysis)” value is on record as “recovery from paralysis, which is complete”; the “peak disease score during first EAE episode” value is given as “modest but significant effect”; the “percentage of mice recovered (score <0.5 by day 23 post treatment initiation)” value is reported as “all of the mice recover”. Also, in assay [2] (setting [6]), the “number of days in recovery” value is “enables a sustained functional recovery” and the “percentage of mice recovered (score <0.5 by day 23 post treatment initiation)” value was “enables full functional recovery”. For the same compound, in assay [2] (i.p. daily from disease onset, replicated in 6 independent experiments), the “dose showing the most rapid recovery” value is listed as 0.01 mg/kg. Further, the disease score entry in assay [2] (nalmefene 0.01 mg/kg i.p. daily in the presence of norBNI 10 mg/kg i.p. weekly) is recorded as “effective at reducing disease independently of the KOR”. Also, the “number of days in recovery (sustained recovery)” value in assay [2] (nalmefene 0.01 mg/kg i.p. daily, clemastine fumerate 10 mg/kg i.p.) is given as “sustained recovery”. In assay [2] (nalmefene 0.01 mg/kg i.p. daily, clemastine fumerate 10 mg/kg i.p., from disease onset), the “disease score (functional recovery), comparison nalmefene vs clemastine” value is recorded as “almost complete recovery from paralysis”. For the same compound, in assay [3], the “axonal-myelin structure and remyelination (TEM)” value was “more normal axonal-myelin structure and organisation, and increased remyelination”; the “g-ratio (measure of myelin thickness), corpus callosum” value was determined as 0.791±0.01; the “g-ratio compared to vehicle” value is listed as “significantly lower g-ratio compared to vehicle only treated”.
